6 compounds from US6635432B1, “Peptide potentiation of acid-sensory ion channel in pain” (University of Iowa Research Foundation, priority 2000, dated 2003) can be followed below.

Where no end group is shown, it is not given here.

What all share (type): cell-based
Assay [1] concerns the target T1, ASICα (Homo sapiens, UniProt P78348).
T1 sequence (P78348 1-528): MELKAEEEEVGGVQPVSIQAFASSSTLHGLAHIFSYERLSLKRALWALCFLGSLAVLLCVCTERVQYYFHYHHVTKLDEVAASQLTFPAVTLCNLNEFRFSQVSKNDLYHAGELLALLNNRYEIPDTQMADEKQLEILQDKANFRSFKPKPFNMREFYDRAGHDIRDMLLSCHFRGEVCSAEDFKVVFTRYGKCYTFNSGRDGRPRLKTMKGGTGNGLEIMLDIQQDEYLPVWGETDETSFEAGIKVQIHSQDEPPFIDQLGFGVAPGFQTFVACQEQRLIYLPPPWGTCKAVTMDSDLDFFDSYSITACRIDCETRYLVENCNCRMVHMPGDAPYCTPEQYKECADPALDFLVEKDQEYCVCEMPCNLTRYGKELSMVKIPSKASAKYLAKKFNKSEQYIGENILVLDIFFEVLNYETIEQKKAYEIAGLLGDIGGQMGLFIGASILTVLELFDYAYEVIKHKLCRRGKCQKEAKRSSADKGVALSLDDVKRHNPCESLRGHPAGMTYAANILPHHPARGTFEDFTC
Description: Two-electrode voltage-clamp of Xenopus oocytes expressing ASICα. More on the design: expressed in transfected cells; host or cells: Xenopus laevis oocytes (nuclear injection of pMT3 plasmid). As to conditions: for effect on H+-gated ASICα current (inactivation, sustained current): pH 5, agents 50 μM (A18Famide 25 μM), added prior to and during acidification. The source says: Human ASICα was cloned from brain polyA RNA. Rat ASICβ and mouse DRASIC were cloned from DRG RNA. Human BNC1 was cloned as described in Price et al. (1996)(Price, M. P., Snyder, P. M., and Welsh, M. J. (1996). Cloning and expression of a novel human brain Na^+ channel. J Biol Chem 271, 7879-7882). Constructs were cloned into pMT3 for expression.
(§1) Expression of the cDNA constructs in Xenopus oocytes was accomplished by injection of plasmid DNA into the nucleus of defolliculated albino Xenopus laevis oocytes (Nasco, Fort Atkinson, Wis.) as described previously (Adams, C. M., Snyder, P. M., Price, M. P., and Welsh, M. J. (1998). Protons activate brain Na^+ channel 1 by inducing a conformational change that exposes a residue associated with neurodegeneration. J Biol Chem 273, 30204-30207). Plasmids were injected at concentrations of 100 ng/μl for most experiments. Oocytes were incubated in modified Barth's solution at 18° C. for 12-26 hr after injection. Cells injected with DRASIC were allowed to incubate for 24-48 hr before analysis.
Whole-cell currents in oocytes were measured using a two-electrode voltage-clamp as previously described (Adams, et al. (1998)). Oocytes were bathed in frog Ringers solution containing, in mM: 116 NaCl, LiCl or KCl, 0.4 CaCl2, MgCl2, 5 4-(2-hydroxyethyl)-1-piperazineethanesulfonic acid (HEPES), pH 7.4. Acidic solutions were buffered with 5 mM 2-(4-morpholino)-ethanesulfonic acid (MES) instead of HEPES. Membrane voltage was held at −60 mV unless otherwise noted. Most peptides and naloxone were obtained from Sigma Chemical Co. (St. Louis, Mont.) and were added to the extracellular solution. The peptide FRRFamide was synthesized by Research Genetics (Huntsville, Ala.).
Background: In two-electrode clamp one electrode senses voltage and the other passes current.

In assay [2] the test system is proton-gated currents in cultured rat DRG neurons. Description: Whole-cell patch-clamp of proton-gated currents in cultured DRG neurons. How it is done: Rat DRG neurons were cultured from Norway rats as described in Benson et al. (1999)(Benson, C. J., Eckert, S. P., and McCleskey, E. W. (1999). Acid-evoked currents in cardiac sensory neurons: A possible mediator of myocardial ischemic sensation. Circulation Research 84, 921-928). Cells were allowed to incubate overnight at room temperature and studies were done 1 to 2 days after isolation.
During whole-cell patch-clamping of DRG neurons and transfected HEK-293T cells, the cells were bathed with an extracellular solution that contained, in mM: 128 NaCl, 5 MgCl2, 1.8 CaCl2, 5.4 KCl, 5.55 glucose, 20 HEPES, pH 7.5 or 5. The pipette solution contained, in mM: 120 KCl, 10 NaCl, 2 MgCl2, 5 EGTA, 10 HEPES. Perfusion of cells with different solutions was done by placing the appropriate outlet in front of the cell. Data were recorded with an AXOPATCH 200 (Axon Instruments, Foster City, Calif.) and stored on a digital tape recorder. Digitization was executed by acquiring data at 400 Hz using pClamp6 (Axon Instruments, Foster City, Calif.).
Whole-cell patch-clamp recordings were used to investigate the effect of FMRFamide on proton-gated currents in cultured rat DRG neurons. As previously reported (Akaike, N., and Ueno, S. (1994). Proton-induced current in neuronal cells. Prog Neurobiol 43, 73-83), acidification to pH 5 produced rapidly activating and inactivating currents in the sensory neurons of the DRG (FIGS. 1A-D). […] The presence of the neuropeptide immediately before acidification also altered inactivation (FIGS. 1C, 1D).
On the technique in general: Patch clamp records ionic current or voltage across a cell membrane.

For assay [3], the target named is T1, ASICα. Description: Whole-cell patch-clamp of HEK-293T cells transfected with ASICα. More on the design: expressed in transfected cells. As to conditions: HEK293 cells; amiloride 100 μM, FMRFamide 100 μM, pH 5. The source says: Human ASICα was cloned from brain polyA RNA. Rat ASICβ and mouse DRASIC were cloned from DRG RNA. […] Constructs were cloned into pMT3 for expression.
To identify transfected cells, pGreenlantern vector encoding green fluorescent protein (Gibco, Gaithersburg, Md.) was co-transfected with ASICα at a ratio of 1:6; transfected cells were identified using epifluorescence microscopy. Cells were studied 1-2 days after transfection.
The pipette solution contained, in mM: 120 KCl, 10 NaCl, 2 MgCl2, 5 EGTA, 10 HEPES. Perfusion of cells with different solutions was done by placing the appropriate outlet in front of the cell. Data were recorded with an AXOPATCH 200 (Axon Instruments, Foster City, Calif.) and stored on a digital tape recorder. Digitization was executed by acquiring data at 400 Hz using pClamp6 (Axon Instruments, Foster City, Calif.).

The target in assay [4] is T2, BNC1 (Homo sapiens, UniProt Q16515).
T2 construct: expressed in transfected cells; host or cells: Xenopus laevis oocytes (nuclear injection of pMT3 plasmid)
T2 sequence (Q16515 1-512): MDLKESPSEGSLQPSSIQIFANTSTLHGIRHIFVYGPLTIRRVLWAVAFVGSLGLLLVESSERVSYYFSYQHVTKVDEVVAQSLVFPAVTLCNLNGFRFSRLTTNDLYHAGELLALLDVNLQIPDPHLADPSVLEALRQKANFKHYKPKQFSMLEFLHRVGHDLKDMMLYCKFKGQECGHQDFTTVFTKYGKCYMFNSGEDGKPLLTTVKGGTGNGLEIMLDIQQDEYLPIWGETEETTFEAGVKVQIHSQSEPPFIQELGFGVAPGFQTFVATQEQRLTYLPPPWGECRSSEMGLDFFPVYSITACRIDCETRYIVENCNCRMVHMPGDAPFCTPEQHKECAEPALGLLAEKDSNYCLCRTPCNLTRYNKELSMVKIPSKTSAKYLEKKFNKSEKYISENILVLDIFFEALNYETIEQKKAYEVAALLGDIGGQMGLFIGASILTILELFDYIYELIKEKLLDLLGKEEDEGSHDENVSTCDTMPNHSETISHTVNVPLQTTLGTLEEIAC
Description: Two-electrode voltage-clamp of Xenopus oocytes expressing BNC1. Particulars: pH 5.
Source text: (§2) Human ASICα was cloned from brain polyA RNA. Rat ASICβ and mouse DRASIC were cloned from DRG RNA. Human BNC1 was cloned as described in Price et al. (1996)(Price, M. P., Snyder, P. M., and Welsh, M. J. (1996). Cloning and expression of a novel human brain Na^+ channel. J Biol Chem 271, 7879-7882). Constructs were cloned into pMT3 for expression. The validity of the constructs was confirmed by DNA sequencing.
as §1
(§3) Whole-cell currents in oocytes were measured using a two-electrode voltage-clamp as previously described (Adams, et al. (1998)). […]

Assay [5] has as its target T3, DRASIC (Mus musculus, UniProt Q6X1Y6).
T3 construct: expressed in transfected cells; host or cells: Xenopus laevis oocytes (nuclear injection of pMT3 plasmid)
T3 sequence (Q6X1Y6 1-530): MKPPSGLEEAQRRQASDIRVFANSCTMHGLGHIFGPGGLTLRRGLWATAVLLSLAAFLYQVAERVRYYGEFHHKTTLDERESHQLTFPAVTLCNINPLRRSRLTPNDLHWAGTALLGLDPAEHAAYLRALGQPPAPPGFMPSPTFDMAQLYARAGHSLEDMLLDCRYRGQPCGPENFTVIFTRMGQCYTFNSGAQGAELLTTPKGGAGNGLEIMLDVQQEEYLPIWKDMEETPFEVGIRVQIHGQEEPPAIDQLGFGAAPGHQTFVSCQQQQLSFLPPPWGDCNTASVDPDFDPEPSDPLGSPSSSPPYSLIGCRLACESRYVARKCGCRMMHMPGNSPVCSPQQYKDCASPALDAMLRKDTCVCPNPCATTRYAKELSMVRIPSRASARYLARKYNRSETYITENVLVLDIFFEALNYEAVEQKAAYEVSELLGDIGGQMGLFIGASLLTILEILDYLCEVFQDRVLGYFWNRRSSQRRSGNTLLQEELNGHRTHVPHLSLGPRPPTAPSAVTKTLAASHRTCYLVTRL
Description: Two-electrode voltage-clamp of Xenopus oocytes expressing DRASIC. As to conditions: neuropeptide FF 50 μM added prior to acidification.
Source text: as §2, §1, §3

The target of assay [6] is T4, ASICβ (Rattus norvegicus, UniProt P55926).
T4 construct: expressed in transfected cells; host or cells: Xenopus laevis oocytes (nuclear injection of pMT3 plasmid)
T4 sequence (P55926 1-559 isoform P55926-3): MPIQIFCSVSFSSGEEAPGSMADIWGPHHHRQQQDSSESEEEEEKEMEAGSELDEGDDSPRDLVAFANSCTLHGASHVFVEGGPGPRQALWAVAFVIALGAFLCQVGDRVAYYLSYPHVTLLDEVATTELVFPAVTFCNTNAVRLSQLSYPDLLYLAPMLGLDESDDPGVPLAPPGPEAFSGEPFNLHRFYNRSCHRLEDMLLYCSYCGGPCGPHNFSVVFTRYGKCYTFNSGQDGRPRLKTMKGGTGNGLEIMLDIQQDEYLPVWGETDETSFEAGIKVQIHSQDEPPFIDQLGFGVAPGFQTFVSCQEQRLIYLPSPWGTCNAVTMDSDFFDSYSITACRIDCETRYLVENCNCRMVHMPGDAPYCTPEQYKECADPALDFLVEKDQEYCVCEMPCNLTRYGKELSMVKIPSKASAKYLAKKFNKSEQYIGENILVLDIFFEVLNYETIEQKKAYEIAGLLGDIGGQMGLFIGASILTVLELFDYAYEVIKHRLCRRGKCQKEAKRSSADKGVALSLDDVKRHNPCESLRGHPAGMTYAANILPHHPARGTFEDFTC
In words: Two-electrode voltage-clamp of Xenopus oocytes expressing ASICβ. Particulars: pH 5, peptide 50 μM.
Source text: as §2, §1, §3

Take `CN1CC[C@]23c4c5ccc(O)c4O[C@H]2[C@@H](O)C=C[C@H]3[C@H]1C5` [morphine]: in assay [1], the “effect on H+-gated ASICα current (inactivation, sustained current)” value (from here on “effect on H+-gated ASICα current”) is recorded as “neither morphine nor naloxone altered ASICα current”. Moreover, in assay [2] (morphine 50 μM), the “mimicking of the FMRFamide effect on proton-gated current” value is recorded as “did not mimic it”.

For “A18Famide: mammalian FMRFamide-like peptide, terminates with the sequence PQRFamide (AGEGLNSQFWSLAAPQRF-NH2; UniProt O15130 93-110, looked up)”, the “effect on H+-gated ASICα current” value in assay [1] is “Neither A18Famide nor MERF altered ASICα current”.

For the compound `N=C(N)NC(=O)c1nc(Cl)c(N)nc1N` [amiloride], the “effect of amiloride on FMRFamide-induced sustained current” value in assay [1] (amiloride 1 mM, FMRFamide 50 μM, pH 5) is on record as “inhibited”; in assay [3], “inhibited”.

As to “Phe-Leu-Phe-Gln-Pro-Gln-Arg-Phe-amide [neuropeptide FF]”, the “effect on H+-gated ASICα current” value in assay [1] was “produced only minor effects on inactivation rate but no sustained current”; in assay [1] (listed as Neuropeptide FF), “subtle effects on ASICα currents, slowing inactivation but not generating appreciable sustained current”. Also, in assay [4], the “effect on acid-gated BNC1 currents” value is reported as “appeared unaffected”. Besides, in assay [5], the “effect on inactivation of H+-gated DRASIC currents” value is “slowed the inactivation of H^+-gated DRASIC currents”. For the same compound, in assay [6], the “effect on H+-gated ASICβ current (inactivation, sustained current)” value is “appeared unaffected”. Moreover, the “size of effects compared with FMRFamide” value in assay [2] (pH 5, 50 μM each) is given as “smaller than those generated by FMRFamide”. Moreover, the “effect on inactivation of proton-gated current and sustained current” value in assay [2] (pH 5, FMRFamide 50-100 μM, neuropeptide FF 50 μM) was “altered inactivation of proton-gated DRF currents”. In assay [2] (without acidification), the “current generated by agent added alone” value was “generated no current on its own”.

As to “metenkephalin-Arg-Phe (YGGFMRF; Met-enkephalin-Arg-Phe; UniProt P01210 261-267, looked up) [MERF]”, the “effect on H+-gated ASICα current” value in assay [1] is recorded as “Neither A18Famide nor MERF altered ASICα current”.

As for `C=CCN1CC[C@]23c4c5ccc(O)c4O[C@H]2C(=O)CC[C@@]3(O)[C@H]1C5` [naloxone], in assay [1] (naloxone 500 μM applied before FMRFamide 50 μM, pH 5), the “effect of naloxone on FMRFamide-induced ASICα sustained current” value was “neither morphine nor naloxone altered ASICα current”. In assay [2] (naloxone 100 μM), the “block of the FMRFamide effect on proton-gated current” value was “did not block the effect of FMRFamide”.
